pIC50: −log10 of the molar value.
Columns and labels:
TNFa/TNFRI interaction = TNFa/TNFRI interaction (Homo sapiens, UniProt P01375); experiment: TNFa/TNFRI interaction displacement test; assay type: binding; details: for Displacement (%): compounds at 50 μM, human TNFRI 100 ng/ml; for Displacement EC50 TNFa in presence of compound: Difference: Compound EC50 minus SPD304 EC50;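 for Displacement EC50 TNFa in presence of compound: Difference: SPD304 reference at 20 µM final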
Procedure: Microtiter plates (96 wells) are covered with 100 μl per well of human TNFRI, at a concentration of 100 ng/ml, then incubated overnight at 4° C. The following day, after two washes in PBS/Tween20, the plates are saturated with 150 μl of PBS/BSA 2% for 2 h at 37° C.
100 μl of each mixture are then transferred to the microtiter plate, respecting the established plate plan and incubated overnight at 4° C.
After three washes, 100 μl of biotinylated anti-cytokine secondary antibody are added to each well and incubated for 2 h at 37° C. After three washes, 100 Avl Avidin-HRP (dilution 1/500th) are added and incubated for 30 minutes at 37° C. […] The plates are then read with a spectrophotometer at 450 nm, measuring the optical density (OD) for each well.

IL-4 = target: T1, IL-4 (Homo sapiens, UniProt P05112); experiment: Immunoassay binding test, IL-4; details: for pIC50: IL-4 400 ng/ml, receptor 100 ng/ml, read-out: BINDING IL4 IC50
T1 sequence (P05112 25-153): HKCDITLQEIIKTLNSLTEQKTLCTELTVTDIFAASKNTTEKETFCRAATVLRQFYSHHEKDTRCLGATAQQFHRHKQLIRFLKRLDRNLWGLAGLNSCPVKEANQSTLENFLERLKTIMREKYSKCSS
Procedure: (§1) Microtiter plates (96 wells) are covered with 100 μl of receptor per well, and incubated overnight at 4° C. The following day, after 2 washes in PBS/Tween20, the plates are saturated with 150 μl of PBS/BSA 2% per well, for 2 h at 37° C. Synthetic compounds are diluted in series (final concentrations: 100 to 0.78 μM) then a fixed amount of cytokine in PBS/BSA 1% is added to the compounds, in a final volume of 120 μl per well. […] The cytokine is diluted in series (six concentrations) in a final volume of 120 μl per well. The cytokine is used in the absence of small molecule as well as the range of SPD304 as positive controls and the absence of cytokine and synthetic molecule as negative control. The different mixtures are incubated for 2 h at 37° C. 100 μl of each mixture are then transferred to the microtiter plate, respecting the plate plan previously defined and incubated overnight at 4° C. After three washes, 100 μl of biotinylated anti-cytokine secondary antibody are added to each well, then incubated for 2 h at 37° C. After three washes, 100 μl of Avidin-HRP (1/500th dilution) are added and incubated for 30 minutes at 37° C. […] The plates are then read with a spectrophotometer at 450 nm, measuring the optical density for each well.
(§2) This binding test is carried out with different cytokines: TNFa, IL-4, IL-6 and IL-13. For IL-6, the incubation of molecules with the cytokine also requires the presence of IL-6Ra at a final concentration of 200 ng/ml.
(§3) The final concentrations used for each of the cytokines are presented below: […]

IL-13 = IL-13 (Homo sapiens, UniProt P35225); experiment: Immunoassay binding test, IL-13; details: for pIC50: IL-13 400 ng/ml, receptor 100 ng/ml, read-out: BINDING IL13 IC50
Procedure: as §1, with “The cytokine is used in the absence of small molecule as well as the range of SPD304 as positive controls and the absence of cytokine and synthetic molecule as negative control.” left out
as §2, §3

IL-6 = IL-6 (Homo sapiens, UniProt P05231); experiment: Immunoassay binding test, IL-6 (gp130 receptor, IL-6Ra present); details: IL-6Ra 200 ng/ml
Procedure: as §1, §2, §3

TNFα = TNFα (Homo sapiens, UniProt P01375); experiment: Immunoassay binding test, TNFa; details: compounds 100 to 0.78 μM; TNFα 10 ng/ml, receptor 100 ng/ml; read-out: BINDING TNF IC50
Procedure: as §1, with “C.” for “C. Synthetic compounds are diluted in series (final concentrations: 100 to 0.78 μM) then a fixed amount of cytokine in PBS/BSA 1% is added to the compounds, in a final volume of 120 μl per well.”, “The cytokine is used in the absence of small molecule as well as the range of SPD304 as positive controls and the absence of cytokine and synthetic molecule as negative control.” left out
as §2, §3

IL-6, sequence (P05231 30-212, species assumed): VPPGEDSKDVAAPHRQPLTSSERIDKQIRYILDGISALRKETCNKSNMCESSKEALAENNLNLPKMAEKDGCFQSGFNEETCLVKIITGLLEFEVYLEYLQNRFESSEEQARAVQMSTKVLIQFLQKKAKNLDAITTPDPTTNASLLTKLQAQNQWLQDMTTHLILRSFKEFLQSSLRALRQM
IL-13, sequence (P35225 25-146, species assumed): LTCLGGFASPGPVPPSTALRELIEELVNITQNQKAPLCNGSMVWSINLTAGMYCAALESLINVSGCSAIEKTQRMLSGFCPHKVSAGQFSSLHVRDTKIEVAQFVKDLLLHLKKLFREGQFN
TNFa/TNFRI interaction, sequence (P01375 77-233 limits assumed): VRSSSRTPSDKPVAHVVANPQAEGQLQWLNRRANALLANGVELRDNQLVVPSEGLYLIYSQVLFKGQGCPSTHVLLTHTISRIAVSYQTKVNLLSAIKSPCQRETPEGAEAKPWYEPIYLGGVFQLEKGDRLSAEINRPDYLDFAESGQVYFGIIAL
TNFα, sequence (P01375 77-233 limits assumed, species assumed): as the sequence (P01375 77-233 limits assumed) above

Row | SMILES | Displacement (%) (TNFa/TNFRI interaction) | BINDING IL4 % Neutra at 100 μM (IL-4) [%] | pIC50 (IL-4) | BINDING IL13 % Neutra at 100 μM (IL-13) [%] | pIC50 (IL-13) | BINDING IL6 % Neutra at 100 μM (IL-6) [%] | pIC50 (TNFα) | Displacement EC50 TNFa in presence of compound: Difference (TNFa/TNFRI interaction)
1 | CN(CCCCCN(Cc1cccnc1F)Cc1cn(S(=O)(=O)c2ccccc2)c2ccccc12)C1CCCCC1 [Compound 52, N1-cyclohexyl-N5-((2-fluoropyridin-3-yl)methyl)-N1-methyl-N5-((1-(phenylsulfonyl)-1H-indol-3-yl)methyl)pentane-1,5-diamine] | 145 | 91.7 | 5.30 | 88.1 | 4.80 | 0 | 5.04 | 
2 | CCCCN(CCOCCN(Cc1cccnc1F)Cc1cn(S(=O)(=O)c2ccccc2)c2ccccc12)C1CCCC1 [Compound 109, N-butyl-N-(2-(2-(((2-fluoropyridin-3-yl)methyl)((1-(phenylsulfonyl)-1H-indol-3-yl)methyl)amino)ethoxy)ethyl)cyclopentanamine] | 207 | 86.3 | 5.02 | 7.8 |  | 1 | 4.94 | 
3 | FC(F)(F)c1cccc(-n2cc(CN(CCCNC3CCCCC3)Cc3ccncc3)c3ccccc32)c1 [Compound 12] | 172 | 96.3 | 4.91 | 58.2 | < 4.30 | 1.6 | 5.17 | 14.2 ng/mL
4 | O=S(=O)(c1ccccc1)n1cc(CN(CCOCCNC2CCCCC2)Cc2cccnc2F)c2ccccc21 [Compound 64, N-(2-(2-(((2-fluoropyridin-3-yl)methyl) ((1-(phenylsulfonyl)-1H-indol-3-yl)methyl)amino)ethoxy)ethyl)cyclohexanaminee] | 197 | 90.7 | 5.29 | 83.9 | 4.55 | 0 | 5.05 | 
5 | CCN(CCOCCN(Cc1cccnc1F)Cc1cn(S(=O)(=O)c2ccccc2)c2ccccc12)C1CCCC1 [Compound 107, N-ethyl-N-(2-(2-(((2-fluoropyridin-3-yl)methyl)((1-(phenylsulfonyl)-1H-indol-3-yl)methyl)amino)ethoxy)ethyl)cyclopentanamine] | 169 | 74.9 | 5.29 | 66.1 | 4.59 | 0 | 5.14 | 
6 | CN(CCCCN(Cc1cccc(F)n1)Cc1cn(S(=O)(=O)c2ccccc2)c2ccccc12)C1CCCCC1 [Compound 51, N1-cyclohexyl-N4-((6-fluoropyridin-2-yl)methyl)-N1-methyl-N4-((1-(phenylsulfonyl)-1H-indol-3-yl)methyl)butane-1,4-diamine] | 153 | 87.2 | 5.17 | 89.4 | 4.59 | 0 | 5.10 | 
7 | O=S(=O)(NCCCCN(Cc1cccnc1F)Cc1cn(S(=O)(=O)c2ccccc2)c2ccccc12)N1CCCCCC1 [Compound 81] | 0 | 39.3 | < 4.30 | 0 |  | 1 | < 4.30 | 
8 | O=S(=O)(c1ccccc1)n1cc(CN(CCCCCNCc2cccnc2F)Cc2cccnc2F)c2ccccc21 [Compound 62] | 105 | 81.5 | 5.11 | 67.9 | 4.41 | 0 | 4.57 | 

Continued, values first:

Row | Displacement (%) (TNFa/TNFRI interaction) | BINDING IL4 % Neutra at 100 μM (IL-4) [%] | pIC50 (IL-4) | BINDING IL13 % Neutra at 100 μM (IL-13) [%] | pIC50 (IL-13) | BINDING IL6 % Neutra at 100 μM (IL-6) [%] | pIC50 (TNFα) | Displacement EC50 TNFa in presence of compound: Difference (TNFa/TNFRI interaction) | SMILES
9 | 106 | 97.3 | 5.40 | 93.6 | < 4.30 | 16.8 | 4.70 |  | FC(F)(F)c1cccc(-n2cc(CN(CCNC3CCCCC3)Cc3cccnc3)c3ccccc32)c1 [Compound 30]
10 | 141 | 98 | 5.68 | 94.6 | 4.71 | 3.7 | 4.85 | 4.9 ng/mL | FC(F)(F)c1cccc(-n2cc(CN(CCCCNC3CCCCC3)Cc3cccnc3)c3ccccc32)c1 [Compound 21]
11 | 221 | 98.3 | 5.40 | 92.2 | 5.00 | 5.2 | 4.67 | Difference = 9 ng/ml | FC(F)(F)c1cccc(-n2cc(CN(Cc3cccnc3)CC3CCCN(C4CCCCC4)C3)c3ccccc32)c1 (stereo not shown) [Compound 4]
12 | 140 | 98.1 | 5.31 | 85.8 | < 4.30 | 5.6 | 5.03 | 5.5 ng/mL | CN(CCCCN(Cc1cccnc1)Cc1cn(-c2cccc(C(F)(F)F)c2)c2ccccc12)C1CCCCC1 [Compound 23]
13 | 158 | 98.8 | 5.51 | 85.3 | < 4.30 | 3.6 | 4.87 | 6.3 ng/mL | CN(CCCCN(Cc1ccncc1)Cc1cn(-c2cccc(C(F)(F)F)c2)c2ccccc12)C1CCCCC1 [Compound 24]
14 | 153 | 95.7 | 5.44 | 98.6 | 5.51 | 8.7 | 4.78 | 3.4 ng/mL | FC(F)(F)c1cccc(-n2cc(CN(Cc3ccncc3)CC3CCCN(C4CCCCC4)C3)c3ccccc32)c1 (stereo not shown) [Compound 6]
15 | 88 | 99.5 | 5.32 | 97.5 | 5.21 | 18.5 | 4.71 |  | Fc1cc(CN(Cc2cn(-c3cccc(C(F)(F)F)c3)c3ccccc23)CC2CCCN(C3CCCCC3)C2)ccn1 (stereo not shown) [Compound 20]
